According to patent US12371454B2, “Cyclic peptide compound having Kras inhibitory action” (priority 2019, dated 2025):
pIC50: −log10 of the molar value. Starred links: 1 amine or outer side, 2 acyl side, 3 side chain; linkers in the order of their positions; H or OH if unused. Positions of bridges follow the written chain, without caps; N, C: chain ends. Non-standard residues stand in square brackets, D forms with d. Residues, ends and D or L forms follow the SMILES beside them. *: point of attachment. hPhe(3-Cl-4-CF3) = N[C@@H](CCc1ccc(C(F)(F)F)c(Cl)c1)C(=O)O; hPhe(3-F,4-CF3) = N[C@@H](CCc1ccc(C(F)(F)F)c(F)c1)C(=O)O; NMePhe(4-CF3) = CN[C@@H](Cc1ccc(C(F)(F)F)cc1)C(=O)O; NMedβ3hAla = C[C@H](CC(=O)[*:2])N(C)[*:1]; NMeGly(cPent) = CN[C@H](C(=O)O)C1CCCC1; Pro(4,4-F2) = O=C(O)[C@@H]1CC(F)(F)CN1; NMeCha = CN[C@@H](CC1CCCCC1)C(=O)O; NMeAhp(2) = CCCCC[C@H](NC)C(=O)O; NMeChg = CN[C@H](C(=O)O)C1CCCCC1; NMeI = CC[C@H](C)[C@H](NC)C(=O)O; NMeD = CN[C@@H](CC(=O)O)C(=O)O; NMeL = CN[C@@H](CC(C)C)C(=O)O; NMeV = CN[C@H](C(=O)O)C(C)C; Azetidin(1-yl) = C1CN(*)C1; Morpholide = C1CN(*)CCO1; NMeA = CN[C@@H](C)C(=O)O; NMeAib = CNC(C)(C)C(=O)O; Piperidide = C1CCN(*)CC1; Pyrrolidide = C1CCN(*)C1; Ac5c = NC1(C(=O)O)CCCC1; Aze = O=C(O)[C@@H]1CCN1; Sar = CNCC(=O)O

These compounds were tested on Human pancreatic cancer cell line AsPC-1 (assay: Measurement of AsPC-1 cell growth inhibition (AsPC-1 CGI)). Conditions: 96 h.
Assay type: cell-based
Method: Measurement of AsPC-1 Cell Growth Inhibition (AsPC-1 CGI)
Test compounds were serially diluted with dimethyl sulfoxide, and 200 nL was then dispensed to a U-bottom 96-well plate using Labcyte Echo. Human pancreatic cancer cell line AsPC-1 was suspended in RPMI-1640 medium supplemented with 15% fetal bovine serum to prepare a cell suspension at 1000 cells/100 μL. The cell suspension was dispensed to a plate containing a test compound at 100 μL per well and incubated at 37° C. in a 5% carbon dioxide gas incubator. 96 hours later, 80 μL of CellTiter-Glo (Promega) was added to each well and […] was measured.

Q: With `CC[C@H](C)[C@@H]1NC(=O)[C@H](CC(C)C)N(C)C(=O)C[C@@H](C(=O)N2CCCCC2)N(C)C(=O)[C@H](C2CCCCC2)N(C)C(=O)C2(CCCC2)NC(=O)[C@@H]2CCCN2C(=O)[C@H](CCc2ccc(C(F)(F)F)c(Cl)c2)NC(=O)CN(C)C(=O)[C@H](CC2CCCCC2)N(C)C(=O)[C@@H]2CCN2C(=O)[C@H](C)N(C)C1=O` [Compound 249] ([NMeL]I[NMeA][Aze][NMeCha][Sar][hPhe(3-Cl-4-CF3)]P[Ac5c][NMeChg][NMeD]-Piperidide; lactam N-11) as the compound, how does the pIC50 read?
A: Its pIC50 is 6.30 to 7.00.

Q: How did the pIC50 turn out when `CC[C@H](C)[C@@H]1NC(=O)[C@H](CC(C)C)N(C)C(=O)C[C@@H](C(=O)N2CCC2)N(C)C(=O)[C@H](C(C)C)N(C)C(=O)C2(CCCC2)NC(=O)[C@@H]2CCCN2C(=O)[C@H](CCc2ccc(C(F)(F)F)c(Cl)c2)NC(=O)CN(C)C(=O)[C@H](CC2CCCCC2)N(C)C(=O)[C@@H]2CCN2C(=O)[C@H](C)N(C)C1=O` [Compound 256] ([NMeL]I[NMeA][Aze][NMeCha][Sar][hPhe(3-Cl-4-CF3)]P[Ac5c][NMeV][NMeD]-{Azetidin(1-yl)}; lactam N-11) was run?
A: The pIC50 was 6.30 to 7.00.

Q: With `CCCCC[C@H]1C(=O)N[C@@H]([C@@H](C)CC)C(=O)N[C@@H](C)C(=O)N2CC[C@H]2C(=O)N(C)[C@@H](CC2CCCCC2)C(=O)N(C)CC(=O)N[C@@H](CCc2ccc(C(F)(F)F)c(Cl)c2)C(=O)N2CCC[C@H]2C(=O)NC2(CCCC2)C(=O)N(C)[C@@H](C2CCCC2)C(=O)N(C)[C@H](C(=O)N2CCOCC2)CC(=O)N1C` [Compound 263] ([NMeAhp(2)]IA[Aze][NMeCha][Sar][hPhe(3-Cl-4-CF3)]P[Ac5c][NMeGly(cPent)][NMeD]-Morpholide; lactam N-11) as the compound, how does the pIC50 read?
A: The pIC50 was 7.30 to 7.70.

Q: `CC[C@H](C)[C@@H]1NC(=O)[C@H](CC(C)C)N(C)C(=O)C[C@@H](C(=O)N2CCCCC2)N(C)C(=O)[C@H](C2CCCCC2)N(C)C(=O)C2(CCCC2)NC(=O)[C@H](C)N(C)C(=O)[C@H](CCc2ccc(C(F)(F)F)c(Cl)c2)NC(=O)CN(C)C(=O)[C@H](CC2CCCCC2)N(C)C(=O)CN(C)C(=O)CN(C)C1=O` [Compound 294] ([NMeL]I[Sar][Sar][NMeCha][Sar][hPhe(3-Cl-4-CF3)][NMeA][Ac5c][NMeChg][NMeD]-Piperidide; lactam N-11) was tested. Which pIC50 did it give?
A: The pIC50 was 6.30 to 7.00.

Q: How did the pIC50 turn out when `CC[C@H](C)[C@@H]1NC(=O)[C@H](CC(C)C)N(C)C(=O)C[C@@H](C(=O)N2CCCC2)N(C)C(=O)[C@H]([C@@H](C)CC)N(C)C(=O)C2(CCCC2)NC(=O)[C@@H]2CCCN2C(=O)[C@H](CCc2ccc(C(F)(F)F)c(F)c2)NC(=O)CN(C)C(=O)[C@H](C2CCCC2)N(C)C(=O)[C@@H]2CCN2C(=O)[C@H](C)N(C)C1=O` [Compound 313] ([NMeL]I[NMeA][Aze][NMeGly(cPent)][Sar][hPhe(3-F,4-CF3)]P[Ac5c][NMeI][NMeD]-Pyrrolidide; lactam N-11) was run?
A: The pIC50 was 7.30 to 7.70.

Q: How did the pIC50 turn out when `CC[C@H](C)[C@@H]1NC(=O)[C@H](CC(C)C)N(C)C(=O)C[C@@H](C)N(C)C(=O)[C@H](C2CCCCC2)N(C)C(=O)C2(CCCC2)NC(=O)[C@@H]2CC(F)(F)CN2C(=O)[C@H](CCc2ccc(C(F)(F)F)c(Cl)c2)NC(=O)CN(C)C(=O)[C@H](Cc2ccc(C(F)(F)F)cc2)N(C)C(=O)[C@@H]2CCN2C(=O)[C@H](C)N(C)C1=O` [Compound 319] (cyclo([Ac5c][NMeChg][NMedβ3hAla][NMeL]I[NMeA][Aze][NMePhe(4-CF3)][Sar][hPhe(3-Cl-4-CF3)][Pro(4,4-F2)])) was run?
A: The pIC50 was 6.30 to 7.00.

Q: `CC[C@H](C)[C@@H]1NC(=O)[C@H](C)N(C)C(=O)C[C@@H](C)N(C)C(=O)[C@H](C(C)C)N(C)C(=O)C(C)(C)N(C)C(=O)[C@@H]2CCCN2C(=O)[C@H](CCc2ccc(C(F)(F)F)c(Cl)c2)NC(=O)CN(C)C(=O)[C@H](CC2CCCCC2)N(C)C(=O)[C@@H]2CCN2C(=O)[C@H](C)N(C)C1=O` [Compound 341] (cyclo([Aze][NMeCha][Sar][hPhe(3-Cl-4-CF3)]P[NMeAib][NMeV][NMedβ3hAla][NMeA]I[NMeA])) was tested. Which pIC50 did it give?
A: The pIC50 was 6.30 to 7.00.

Q: How did the pIC50 turn out when `CC[C@H](C)[C@@H]1NC(=O)[C@H](CC(C)C)N(C)C(=O)C[C@@H](C)N(C)C(=O)[C@H](C2CCCCC2)N(C)C(=O)C2(CCCC2)NC(=O)[C@@H]2CCCN2C(=O)[C@H](CCc2ccc(C(F)(F)F)c(Cl)c2)NC(=O)CN(C)C(=O)[C@H](Cc2ccc(C(F)(F)F)cc2)N(C)C(=O)[C@@H]2CCN2C(=O)[C@H](C)N(C)C1=O` [Compound 348] (cyclo([Ac5c][NMeChg][NMedβ3hAla][NMeL]I[NMeA][Aze][NMePhe(4-CF3)][Sar][hPhe(3-Cl-4-CF3)]P)) was run?
A: Its pIC50 is 6.30 to 7.00.

Q: How did the pIC50 turn out when `CC[C@H](C)[C@@H]1NC(=O)[C@H](CC(C)C)NC(=O)C[C@@H](C(=O)N2CCCCC2)N(C)C(=O)[C@H](C2CCCCC2)N(C)C(=O)C2(CCCC2)NC(=O)[C@@H]2CCCN2C(=O)[C@H](CCc2ccc(C(F)(F)F)c(Cl)c2)NC(=O)CN(C)C(=O)[C@H](CC2CCCCC2)N(C)C(=O)CN(C)C(=O)CN(C)C1=O` [Compound 356] (LI[Sar][Sar][NMeCha][Sar][hPhe(3-Cl-4-CF3)]P[Ac5c][NMeChg][NMeD]-Piperidide; lactam N-11) was run?
A: The pIC50 was 6.30 to 7.00.
